# Patent US20070202079A1, “Therapeutic compositions and methods useful in modulating protein tyrosine phosphatases” (priority 2006, published 2007)
# Assays:
# PTP1B = target: T1, PTP1B (Homo sapiens, UniProt P18031); assay: in vitro PTPase assay, GST/PTP1B; type: biochemical
# T1 construct: purchased Upstate Biotechnology Inc. (Lake Placid, N.Y.)
# Method: In vitro PTPase activities were measured using the commercial protein tyrosine phosphatase assay kit (Upstate Biotechnology, Inc. (“UBI”)) following established procedure known to one of skill in the art. This assay measures the in vitro dephosphorylation of a synthetic phosphotyrosine peptide of the sequence Arg-Arg-Leu-Ile-Glu-Asp-Ala-Gle-T- -yr-Ala-Ala-Arg-Gly, wherein the tyrosine is phosphorylated (SEQ ID NO: 3). Briefly, 0.01 μg of GST/PTPase fusion proteins was incubated in 50 μl of Tris buffer (10 mM Tris, pH 7.4) containing different concentrations of inhibitors or chemicals (0-1,000 μg/ml) at 22° C. for 10 minutes, followed by addition of 0.2 mM of the phosphotyrosine peptide and incubation at 22° C. for 18 hours. 100 μl of Malachite Green solution was added and incubated for 5 minutes, and the absorbance at 660 nm was measured after 5 minutes.
# In vitro PTPase assays were used to determine the effects of levamisole (Sigma), pentamidine (American Pharmaceutical Partners, Inc.), and ketoconazole (Sigma) on recombinant PTPases, following established procedures (Pathak et al., J. Immunol. 167, 3391 (2001); Pathak et al., Leukemia 16, 2285 (2002), Yi et al., J. Immunol. 169, 5978 (2002)) using a synthetic phosphotyrosine peptide or DiFMUP as the substrate as detailed above in section I.A.2.
# [1] = system: Jak2/Stat5 tyrosine phosphorylation in Baf3 cells; assay: cellular protein tyrosine phosphorylation in Baf3 cells, Western blotting; type: cell-based, murine
# Method: For induction of cellular protein phosphorylation by sodium stibogluconate or pervanadate, Baf3 cells were incubated in 0.1% FCS-RPMI 1640 medium at 37° C. for 16 hours. The cells were then washed twice in RPMI 1640 medium and incubated with sodium stibogluconate or pervanandate (0.1 mM) for various times prior to termination by lysing cells in cold lysis buffer (50 mM Tris, pH 7.4; 150 mM NaCl; 0.2 mM Na3VO4; 20 mm NaF; 1% Nonidet P-40; 2 mM PMSF; 20 μg/ml of Aprotinin and 1 mM of sodium molybdic acid). To determine the effect of sodium stibogluconate or potassium antimonyl tartrate on IL-3-induced Jak/Stat phosphorylation, Baf3 cells were deprived of the growth factor for 16 hours in 0.1% FCS RPMI 1640 medium and then incubated with or without sodium stibogluconate or potassium antimonyl tartrate for 10 minutes. IL-3 was next added to the cell suspension and incubated for various times. The Cells were then harvested and lysed in cold lysis buffer at 4° C. for 45 minutes. Total cell lysates (TCL) were separated in SDS-PAGE gels, blotted onto nitrocellulose membrane (Schleicher & Schuell), probed with specific antibodies and detected using an enhanced chemiluminescence kit (ECL, Amersham, Arlington Heights, Ill.).
# WiT49-N1 = WiT49-N1 cell growth, MTT; type: cell-based, human; details: day 6
# Method: For cell proliferation assays, cells were grown in 10% FCS culture medium containing various amounts of IFNs and/or sodium stibogluconate in 96 well plates and cultured at 37° C. for 3 or 6 days as indicated. The numbers of viable cells in proliferation assays were determined by MTT assays as described in Phatak et al., J. Immunol. 167, 3391 (2001).
# Jurkat cells = assay: IFN-gamma secretion by Jurkat cells, ELISA; type: cell-based, human; details: 16 hours
# Method: Jurkat cells were cultured in the absence or presence of various amounts of SSG for 16 hours. The cells and culture medium supernatants were separated by centrifugation (1,000 g, 10 min). The amounts of IFN-gamma in the culture medium supernatants were quantified using an ELISA kit (R.D. system, Minneapolis, Minn.) following the manufacturer's protocol.
# [2] = system: WM9 PRL-1R86 transfectant; assay: growth of WM9 PRL-1R86 transfectant, MTT; type: cell-based, human; details: 50 or 100 μg/ml, 6 days
# Method: NIH3T3 (Yi, et al., Blood 85, 87 (1995)), WM9 (Forsberg, et al., Proc. Nat. Acad Sci. USA 90, 393 (1993)), DU145 (Mickey, et al., Cancer Res. 37, 4049 (1977)), LoVo (Drewinko, et al., Cancer Res. 36, 467 (1976)), HEY (Buick, et al., Cancer Res. 45, 3668 (1985)), U251 (Yoshida, et al., Cancer 50, 410 (1982)), A549 (Giard, et al., J. Natl. Cancer Inst. 51, 1417 (1973)) and SK-N-SH (Helson, et al., Cancer Res. 35, 2594 (1975)) cell lines have been described and were cultured in RPMI 1640 supplemented with 10% fetal calf serum (FCS). For measurement of sodium stibogluconate effects on cell growth in vitro, cells were cultured in the absence (−) or presence (+) of various amounts of sodium stibogluconate for 6 days with viable cells quantified by MTT assays (Mosmann, J. Immunol. Methods 65, 55 (1983)). Percentages of growth inhibition by sodium stibogluconate were calculated (.+−.x%).
# The effects of sodium stibogluconate on intracellular PTPases were assessed using NIH3T3 or WM9 transfectants. NIH3T3 or WM9 cells were transfected with the pBabepuro vector (V) or pBabepuro expression constructs of Flag-tagged PRLs using Lipofectamine (BRL) following the manufacturer's procedures. […]
# [3] = standard dosage 10-20 mg/kg/day; cited from earlier work
# T1 sequence (P18031 whole entry, species assumed): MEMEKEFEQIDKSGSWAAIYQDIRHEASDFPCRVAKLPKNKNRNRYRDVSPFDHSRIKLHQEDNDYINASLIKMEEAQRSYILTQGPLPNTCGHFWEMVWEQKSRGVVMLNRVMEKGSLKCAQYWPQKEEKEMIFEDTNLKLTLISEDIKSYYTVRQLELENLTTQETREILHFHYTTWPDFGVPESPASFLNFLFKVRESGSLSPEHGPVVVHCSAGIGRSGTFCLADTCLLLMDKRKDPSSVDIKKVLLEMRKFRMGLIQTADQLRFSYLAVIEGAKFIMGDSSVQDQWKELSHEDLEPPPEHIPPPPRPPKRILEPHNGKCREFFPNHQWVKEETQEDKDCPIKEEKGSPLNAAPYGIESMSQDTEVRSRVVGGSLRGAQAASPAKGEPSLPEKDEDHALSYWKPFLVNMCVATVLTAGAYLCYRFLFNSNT
smiles,measurement,setting,value
O.O.O.O.O.O.O.O.O.O=C([O-])[C@@H]1[O][Sb]2([O-])([O][Sb]34([OH])[O][C@H]([C@H](O)CO)[C@H]([O]3)[C@H](C(=O)[O-])[O]4)[O][C@H]([C@H](O)CO)[C@@H]1[O]2.[Na+].[Na+].[Na+] [sodium stibogluconate],inhibition of PTP1B compared with the three drugs,PTP1B,only modestly effective
same,induction of cellular protein tyrosine phosphorylation,"[1]; Baf3 deprived of IL-3, compared with pervanadate 0.1 mM",modest and transient
same,phosphotyrosine levels of Jak2 and Stat5 versus cells without drug,"[1]; IL-3 stimulated, densitometry",about twice
same,Jak2/Stat5 tyrosine phosphorylation by drug alone,"[1]; no IL-3, 16 hours at 37 °C",failed to induce Jak2/Stat5 tyrosine phosphorylation
same,WiT49-N1 growth inhibition activity with IFN-alpha,WiT49-N1,not enhanced by IFN-alpha
same,IFN-gamma secretion,Jurkat cells,increased amounts of IFN-gamma
same,growth inhibition of R86 cells,[2],only modest growth inhibition
same,serum levels,[3],≥ 10000 ng/mL
